According to patent US8008354B2, “Death receptor sensitizing compounds and methods of use therefor” (Burnham Institute for Medical Research, priority 2006, dated 2011):

Tests used:
PPC-1 cells = experiment: MTT viability of PPC-1 cells with extrinsic (CH-11, TRAIL) or intrinsic (VP-16, staurosporine) pathway stimuli; format: cell-based, human; conditions: CH-11, TRAIL versus VP-16, STS, MTT 24 hours
Description: FIG. 4. Small molecules selectively sensitize to extrinsic pathway stimuli. PPC-1 cells (1×10^4) were seeded overnight in 96 well plates. The next day, cells were treated with increasing concentrations of 6094911, 5809354, 5703229, or 5569100 in combination with increasing concentrations of CH-11 or TRAIL to activate the extrinsic pathway or with VP-16 or staurosporine to activate the intrinsic pathway. Cell viability was measured 24 hours later by MTT assay. Cell viability is expressed as a mean percentage of untreated cells+SD(n=3).
Statistics. Cytotoxicity induced by compounds used in combination with conventional agents (e.g., CH-11, TRAIL, VP-16 and staurosporine) was evaluated for evidence of synergy toxicity by comparing the slopes of the dose-response curves. […]
The 9 compounds identified using anti-FAS antibody screening theoretically could non-specifically sensitize tumor cells to apoptotic stimuli or they could be selective for the extrinsic pathway. […] Accordingly, PPC-1 cells were treated with various concentrations of compounds with or without CH-11, TRAIL, VP-16, or STS, and 24 hours later, cell viability was measured by MTT assays.

FLIP = conditions: previously shown (Kim et al., 2002); cited from earlier work

C[n+]1ccn2c3c(c4cc(C5CCCCC5)ccc42)CCCc31.[I-] [compound 5362611, 8-Cyclohexyl-3-methyl-5,6-dihydro-4H-pyrazino[3,2,1-jk]carbazol-3-ium; iodide]
sensitization to extrinsic versus intrinsic pathway stimuli (PPC-1 cells): sensitized to both the death receptor (extrinsic) and mitochondrial pathway (intrinsic) stimuli

CC1(C)CC[C@]2(C(=O)O)CC[C@]3(C)[C@H](C(=O)C=C4[C@@]5(C)C=C(C#N)C(=O)C(C)(C)[C@@H]5CC[C@]43C)[C@@H]2C1 [CDDO, 2-cyano-3,12-dioxooleana-1,9-dien-28-oic acid]
FLIP protein levels (FLIP): reduce FLIP protein levels
